Experimental data published in publication PMC4111124, “Functional characterization of Candida albicans Hos2 histone deacetylase” (F1000Research, 2014).

Tests used:
Hos2 histone deacetylase [1] = biological target: T1, Hos2 histone deacetylase (Candida albicans, UniProt A0A1D8PJ17); experiment: biochemical
T1 construct: full length, N-terminal hexa-histidine tag, expressed in Sf9 cells

Hos2 histone deacetylase [2] = biological target: T1, Hos2 histone deacetylase; experiment: fluorogenic deacetylase assay with Boc-Lys(Ac)-AMC, % inhibition at […]; assay type: biochemical; conditions: read-out: % inhibition ± SE / 10 μM

T1 sequence (A0A1D8PJ17 entry or part of it): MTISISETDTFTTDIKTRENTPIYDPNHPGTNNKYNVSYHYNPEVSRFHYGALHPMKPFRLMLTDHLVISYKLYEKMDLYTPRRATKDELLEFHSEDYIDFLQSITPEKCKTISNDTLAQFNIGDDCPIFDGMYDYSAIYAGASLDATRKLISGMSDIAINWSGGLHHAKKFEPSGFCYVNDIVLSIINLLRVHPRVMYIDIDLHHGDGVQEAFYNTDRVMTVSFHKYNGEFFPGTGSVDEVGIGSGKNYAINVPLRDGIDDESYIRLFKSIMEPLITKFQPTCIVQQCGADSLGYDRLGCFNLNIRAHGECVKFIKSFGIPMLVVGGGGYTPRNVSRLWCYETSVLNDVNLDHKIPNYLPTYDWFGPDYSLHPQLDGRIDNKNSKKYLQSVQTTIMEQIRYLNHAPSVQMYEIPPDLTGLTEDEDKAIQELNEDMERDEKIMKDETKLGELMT

| inhibition at 10 µM (Hos2 histone deacetylase [2]) [%] | Compound | IC50 (Hos2 histone deacetylase [1]) [nM] |
| --- | --- | --- |
|  | CC(/C=C/C(=O)NO)=C\[C@@H](C)C(=O)c1ccc(N(C)C)cc1 [TSA] | 2.8 |
| 56.3 | Nc1ccccc1NC(=O)c1ccc(CNC(=O)OCc2cccnc2)cc1 [MS-275] |  |
